Consider 6 compounds from paper PMC2691174 (Cancer, 2009).

Where two headings read alike, the source gives them in different places.

For series [1] the following is noted: for tmax Mean(Range): stratum A (no EIAEDs, N=14), imatinib 400 mg/day.
Series [2] can be described thus: Plasma pharmacokinetics of hydroxyurea. To be noted: for AUC0−12 / 0−12 Mean(Range) / Cl/F Mean(Range) / Cmax/D Mean(Range) / t1/2 Mean(Range) / tmax Mean(Range): hydroxyurea 500 mg twice-a-day.
The next series has as its system recurrent GBM patients. To be noted: single agent; cited from earlier work.
Series [3] has as its system patients with newly diagnosed glioblastoma (GBM). To be noted: radiotherapy plus temozolomide; cited from earlier work.
Series [4] can be described thus: Plasma pharmacokinetics of vatalanib. It is filed as in vivo, human. To be noted: for Tmax: human, plasma, oral, tmax Mean(Range).
In series [5] the test system is recurrent malignant glioma patients. Nature of the series: Phase I dose escalation: MTD, DLT and toxicity. To be noted: all patients, with imatinib and hydroxyurea.
Another series has as its system PDGFRβ. The conditions noted are these: cited from earlier work.
The mark [6] stands for this setting: stratum A (no EIAEDs, N=14), day 8 of cycle 1.
Where [7] appears, read: stratum A (no EIAEDs, N=14), day 35 of cycle 1.
Setting [8] is: stratum B (on EIAEDs, N=6), day 8 of cycle 1.
Where [9] appears, read: stratum B (on EIAEDs, N=6), day 35 of cycle 1.
The mark [10] stands for this setting: stratum B (on EIAEDs, N=8), day 7 (vatalanib alone, steady state).
Setting [11] is: stratum B (on EIAEDs, N=8), day 35 (with imatinib and hydroxyurea).
[12] abbreviates: stratum A (no EIAEDs, N=15), day 7 (vatalanib alone, steady state).
[13] abbreviates: stratum A (no EIAEDs, N=15), day 35 (with imatinib and hydroxyurea).

Turning to `Cc1ccc(NC(=O)c2ccc(CN3CCNCC3)cc2)cc1Nc1nccc(-c2cccnc2)n1` [CGP74588], the “tmax Mean(Range)” value was 3.43(2.00−6.00) h in series [1] (day 8 of cycle 1) and 3.57(1.00−8.00) h in series [1] (day 35 of cycle 1).

With `NC(=O)NO` [Hydroxyurea], in series [2] (in vivo), the “effect of EIAEDs or time on hydroxyurea pharmacokinetics” value is “no relevant effect”. Besides, in series [2] (setting [6]), the “AUC0−12 / 0−12 Mean(Range)” value is given as 50.4(9.50−91.1) ng/mL*h/mg, the “Cl/F Mean(Range)” value is reported as 15.2(5.50−52.5) L/h, the “Cmax/D Mean(Range)” value is 18.5(6.80−29.6) ng/mL/mg and the “t1/2 Mean(Range)” value was 4.84(1.60−12.5) h. Also, in series [2] (setting [6]), the “tmax Mean(Range)” value was 1.29(0.50−2.00) h. In series [2] (setting [7]), the “AUC0−12 / 0−12 Mean(Range)” value is recorded as 41.7(13.0−84.5) ng/mL*h/mg, the “Cl/F Mean(Range)” value is listed as 15.4(5.90−38.4) L/h, the “Cmax/D Mean(Range)” value is reported as 19.4(5.60−32.6) ng/mL/mg and the “t1/2 Mean(Range)” value is given as 3.29(1.40−6.80) h. Also, the “tmax Mean(Range)” value in series [2] (setting [7]) is reported as 1.30(0.50−4.00) h. In addition, in series [2] (setting [8]), the “AUC0−12 / 0−12 Mean(Range)” value is on record as 37.38(18.1−60.4) ng/mL*h/mg, the “Cl/F Mean(Range)” value is 16.4(8.3−27.6) L/h, the “Cmax/D Mean(Range)” value is listed as 16.5(7.60−35.0) ng/mL/mg and the “t1/2 Mean(Range)” value is 3.5(2.70−5.40) h. The “tmax Mean(Range)” value in series [2] (setting [8]) was 1.80(0.50−4.00) h. Further, in series [2] (setting [9]), the “AUC0−12 / 0−12 Mean(Range)” value was 41.4(17.0−70.1) ng/mL*h/mg, the “Cl/F Mean(Range)” value is on record as 15.4(7.10−29.4) L/h, the “Cmax/D Mean(Range)” value was 19.0(7.80−31.4) ng/mL/mg and the “t1/2 Mean(Range)” value is 7.12(2.50−21.5) h. The “tmax Mean(Range)” value in series [2] (setting [9]) was 0.90(0.50−1.50) h.

Take `Cc1ccc(NC(=O)c2ccc(CN3CCN(C)CC3)cc2)cc1Nc1nccc(-c2cccnc2)n1` [Imatinib]: in series [1] (fully apparent at day 35, more pronounced in patients taking EIAEDs), the “effect of hydroxyurea on imatinib pharmacokinetics” value is “increase in Cmax/D and decreases in CL/F and V/F”.

Regarding `COc1cc2c(Oc3ccc4[nH]c(C)cc4c3F)ncnc2cc1OCCCN1CCCC1` [cedarinib], in the series with recurrent GBM patients, the “median PFS” value is reported as 16 weeks and the radiographic response rate is listed as 50%.

As for `Cn1nnc2c(C(N)=O)ncn2c1=O` [temozolomide], the “median progression-free survival (PFS)” value in series [3] is 6.9 months.

Consider `Clc1ccc(Nc2nnc(Cc3ccncc3)c3ccccc23)cc1` [vatalanib], for which the “effect of vatalanib dose on vatalanib pharmacokinetic parameters” value in series [4] (500 to 1250 mg twice daily) is given as “no significant effect”. Also, in series [4] (day 7), the “decrease of vatalanib Cmax/D by use of EIAEDs” value is “approximately 3 fold”, the “effect of EIAEDs on vatalanib plasma t1/2” value is “not significantly affecting”, the “increase of vatalanib CL/F by use of EIAEDs” value is “approximately 3 fold” and the “increase of vatalanib V/F by use of EIAEDs” value was “more than 3 fold”. In addition, in series [4] (setting [10]), the Tmax was 1.79 h, the “AUC0−12 / 0−12 Mean(Range)” value is reported as 4.51(1.31−12.1) ng/mL*h/mg, the “Cl/F Mean(Range)” value is given as 377(82.3−765) L/h and the “Cmax/D Mean(Range)” value is 1.15(0.40−2.46) ng/mL/mg. In series [4] (setting [11]), the Tmax was determined as 2.13 h, the “AUC0−12 / 0−12 Mean(Range)” value was 6.75(0.73−17.7) ng/mL*h/mg, the “Cl/F Mean(Range)” value is 368(56.5−1371) L/h and the “Cmax/D Mean(Range)” value is 1.91(0.16−6.52) ng/mL/mg. Moreover, in series [4] (setting [12]), the “AUC0−12 / 0−12 Mean(Range)” value is listed as 11.1(2.23−16.1) ng/mL*h/mg, the “Cl/F Mean(Range)” value is 122(62.0−448) L/h and the “Cmax/D Mean(Range)” value is listed as 3.12(0.72−5.03) ng/mL/mg. For the same compound, in series [4] (setting [13]), the “AUC0−12 / 0−12 Mean(Range)” value is 10.4(3.28−25.5) ng/mL*h/mg, the “Cl/F Mean(Range)” value is on record as 137(39.3−305) L/h and the “Cmax/D Mean(Range)” value is listed as 2.82(0.82−7.38) ng/mL/mg. Further, the recommended vatalanib dose in series [5] (irrespective of EIAEDs) came out at 1000 mg twice-a-day. Further, in series [5] (continuous daily schedule), the MTD of vatalanib stood at 1000 mg twice-a-day. Also, the “PDGFRβ IC50 relative to that of imatinib” value in the series on PDGFRβ was “approximately twice”.

A word on the Tmax: it is the time at which the peak concentration occurs.
